Key:
Test in all cases: relative viability (nuclei count vs DMSO), 5 days (fraction); higher = more cells survive
NCI-H522 = system: NCI-H522
Method in brief: (§1)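 Lung cancer cell lines were pin-tool dosed in 1536-well plates on the day after seeding, with either a lone drug or a fixed anchor-drug dose plus five library-drug doses (not always all listed) in √10 steps. Nuclei were counted on 4× images after 5 days. Relative viability is the ratio of treated-well to vehicle-well nuclei counts, with each value a median of duplicate plates.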

NCI-H441 = system: NCI-H441
Method in brief: as §1

HCC-15 = system: HCC-15
Method in brief: as §1

NCI-H2347 = system: NCI-H2347
Method in brief: as §1

NCI-H2023 = system: NCI-H2023
Method in brief: as §1

ABC-1 = system: ABC-1
Method in brief: as §1

NCI-H1793 = system: NCI-H1793
Method in brief: as §1

NCI-H322M = system: NCI-H322M
Method in brief: as §1

NCI-H1734 = system: NCI-H1734
Method in brief: as §1

NCI-H838 = system: NCI-H838
Method in brief: as §1

A-427 = system: A-427
Method in brief: as §1

NCI-H647 = system: NCI-H647
Method in brief: as §1

NCI-H1915 = system: NCI-H1915
Method in brief: as §1

NCI-H358 = system: NCI-H358
Method in brief: as §1

NCI-H2342 = system: NCI-H2342
Method in brief: as §1

NCI-H1944 = system: NCI-H1944
Method in brief: as §1

SW 1573 = system: SW 1573
Method in brief: as §1

LK-2 = system: LK-2
Method in brief: as §1

EPLC-272H = system: EPLC-272H
Method in brief: as §1

RERF-LC-KJ = system: RERF-LC-KJ
Method in brief: as §1

UMC-11 = system: UMC-11
Method in brief: as §1

NCI-H2009 = system: NCI-H2009
Method in brief: as §1

LC-2-ad = system: LC-2-ad
Method in brief: as §1

With CCNC(=O)c1noc(-c2cc(C(C)C)c(O)cc2O)c1-c1ccc(CN2CCOCC2)cc1 [Luminespib] + Nc1ncn([C@H]2C[C@H](O)[C@@H](CO)O2)c(=O)n1 [Decitabine] (partner 2 µM) the relative viability (NCI-H522; first compound 0.002 µM) was 0.626, the relative viability (NCI-H522; first compound 0.006325 µM) was 0.631 and the relative viability (NCI-H522; first compound 0.02 µM) was 0.593. For the same compound, the relative viability (NCI-H522; first compound 0.06325 µM) was 0.6, the relative viability (NCI-H522; first compound 0.2 µM) was 0.451 and the relative viability (NCI-H441; first compound 0.002 µM) was 0.255. The relative viability (NCI-H441; first compound 0.006325 µM) was 0.26, the relative viability (NCI-H441; first compound 0.02 µM) was 0.184 and the relative viability (NCI-H441; first compound 0.06325 µM) was 0.155. For the same compound, the relative viability (NCI-H441; first compound 0.2 µM) was 0.134, the relative viability (HCC-15; first compound 0.002 µM) was 0.695 and the relative viability (HCC-15; first compound 0.006325 µM) was 0.565. It also gave a relative viability (HCC-15; first compound 0.02 µM) of 0.73, a relative viability (HCC-15; first compound 0.06325 µM) of 0.144 and a relative viability (HCC-15; first compound 0.2 µM) of 0.14. It also gave a relative viability (NCI-H2347; first compound 0.002 µM) of 0.603, a relative viability (NCI-H2347; first compound 0.006325 µM) of 0.567 and a relative viability (NCI-H2347; first compound 0.02 µM) of 0.656. For the same compound, the relative viability (NCI-H2347; first compound 0.06325 µM) was 0.431, the relative viability (NCI-H2347; first compound 0.2 µM) was 0.373 and the relative viability (NCI-H2023; first compound 0.002 µM) was 0.242. It also gave a relative viability (NCI-H2023; first compound 0.006325 µM) of 0.218, a relative viability (NCI-H2023; first compound 0.02 µM) of 0.136 and a relative viability (NCI-H2023; first compound 0.06325 µM) of 0.0602. For the same compound, the relative viability (NCI-H2023; first compound 0.2 µM) was 0.0539, the relative viability (ABC-1; first compound 0.002 µM) was 1.19 and the relative viability (ABC-1; first compound 0.006325 µM) was 1.18. It also gave a relative viability (ABC-1; first compound 0.02 µM) of 1.16, a relative viability (ABC-1; first compound 0.06325 µM) of 0.755 and a relative viability (ABC-1; first compound 0.2 µM) of 0.344. It also gave a relative viability (NCI-H1793; first compound 0.002 µM) of 0.499, a relative viability (NCI-H1793; first compound 0.006325 µM) of 0.457 and a relative viability (NCI-H1793; first compound 0.02 µM) of 0.369. It also gave a relative viability (NCI-H1793; first compound 0.06325 µM) of 0.151, a relative viability (NCI-H1793; first compound 0.2 µM) of 0.185 and a relative viability (NCI-H322M; first compound 0.002 µM) of 0.681. For the same compound, the relative viability (NCI-H322M; first compound 0.006325 µM) was 0.624, the relative viability (NCI-H322M; first compound 0.02 µM) was 0.711 and the relative viability (NCI-H322M; first compound 0.06325 µM) was 0.509. It also gave a relative viability (NCI-H322M; first compound 0.2 µM) of 0.499, a relative viability (NCI-H1734; first compound 0.002 µM) of 0.489 and a relative viability (NCI-H1734; first compound 0.006325 µM) of 0.469. The relative viability (NCI-H1734; first compound 0.02 µM) was 0.448, the relative viability (NCI-H1734; first compound 0.06325 µM) was 0.251 and the relative viability (NCI-H1734; first compound 0.2 µM) was 0.159. For the same compound, the relative viability (NCI-H838; first compound 0.002 µM) was 0.495, the relative viability (NCI-H838; first compound 0.006325 µM) was 0.491 and the relative viability (NCI-H838; first compound 0.02 µM) was 0.422. The relative viability (NCI-H838; first compound 0.06325 µM) was 0.176, the relative viability (NCI-H838; first compound 0.2 µM) was 0.193 and the relative viability (A-427; first compound 0.002 µM) was 0.611. The relative viability (A-427; first compound 0.006325 µM) was 0.514, the relative viability (A-427; first compound 0.02 µM) was 0.446 and the relative viability (A-427; first compound 0.06325 µM) was 0.599. For the same compound, the relative viability (A-427; first compound 0.2 µM) was 0.269, the relative viability (NCI-H647; first compound 0.002 µM) was 0.391 and the relative viability (NCI-H647; first compound 0.006325 µM) was 0.484. The relative viability (NCI-H647; first compound 0.02 µM) was 0.18, the relative viability (NCI-H647; first compound 0.06325 µM) was 0.0995 and the relative viability (NCI-H647; first compound 0.2 µM) was 0.124. For the same compound, the relative viability (NCI-H1915; first compound 0.002 µM) was 0.258, the relative viability (NCI-H1915; first compound 0.006325 µM) was 0.278 and the relative viability (NCI-H1915; first compound 0.02 µM) was 0.254. It also gave a relative viability (NCI-H1915; first compound 0.06325 µM) of 0.24, a relative viability (NCI-H1915; first compound 0.2 µM) of 0.21 and a relative viability (NCI-H358; first compound 0.002 µM) of 0.217. The relative viability (NCI-H358; first compound 0.006325 µM) was 0.217, the relative viability (NCI-H358; first compound 0.02 µM) was 0.178 and the relative viability (NCI-H358; first compound 0.06325 µM) was 0.0688. For the same compound, the relative viability (NCI-H358; first compound 0.2 µM) was 0.0584, the relative viability (NCI-H2342; first compound 0.002 µM) was 0.648 and the relative viability (NCI-H2342; first compound 0.006325 µM) was 0.82. It also gave a relative viability (NCI-H2342; first compound 0.02 µM) of 0.546, a relative viability (NCI-H2342; first compound 0.06325 µM) of 0.821 and a relative viability (NCI-H2342; first compound 0.2 µM) of 0.503. The relative viability (NCI-H1944; first compound 0.002 µM) was 0.493, the relative viability (NCI-H1944; first compound 0.006325 µM) was 0.454 and the relative viability (NCI-H1944; first compound 0.02 µM) was 0.405. It also gave a relative viability (NCI-H1944; first compound 0.06325 µM) of 0.405, a relative viability (NCI-H1944; first compound 0.2 µM) of 0.415 and a relative viability (SW 1573; first compound 0.002 µM) of 0.569. It also gave a relative viability (SW 1573; first compound 0.006325 µM) of 0.456, a relative viability (SW 1573; first compound 0.02 µM) of 0.159 and a relative viability (SW 1573; first compound 0.06325 µM) of 0.072. The relative viability (SW 1573; first compound 0.2 µM) was 0.0827, the relative viability (LK-2; first compound 0.002 µM) was 0.32 and the relative viability (LK-2; first compound 0.006325 µM) was 0.268. For the same compound, the relative viability (LK-2; first compound 0.02 µM) was 0.192, the relative viability (LK-2; first compound 0.06325 µM) was 0.0898 and the relative viability (LK-2; first compound 0.2 µM) was 0.0914. The relative viability (EPLC-272H; first compound 0.002 µM) was 0.393, the relative viability (EPLC-272H; first compound 0.006325 µM) was 0.337 and the relative viability (EPLC-272H; first compound 0.02 µM) was 0.311. For the same compound, the relative viability (EPLC-272H; first compound 0.06325 µM) was 0.282, the relative viability (EPLC-272H; first compound 0.2 µM) was 0.106 and the relative viability (RERF-LC-KJ; first compound 0.002 µM) was 0.759. For the same compound, the relative viability (RERF-LC-KJ; first compound 0.006325 µM) was 0.669, the relative viability (RERF-LC-KJ; first compound 0.02 µM) was 0.417 and the relative viability (RERF-LC-KJ; first compound 0.06325 µM) was 0.225. It also gave a relative viability (RERF-LC-KJ; first compound 0.2 µM) of 0.198, a relative viability (UMC-11; first compound 0.002 µM) of 0.604 and a relative viability (UMC-11; first compound 0.006325 µM) of 0.569. For the same compound, the relative viability (UMC-11; first compound 0.02 µM) was 0.334, the relative viability (UMC-11; first compound 0.06325 µM) was 0.56 and the relative viability (UMC-11; first compound 0.2 µM) was 0.23. For the same compound, the relative viability (NCI-H2009; first compound 0.002 µM) was 0.405, the relative viability (NCI-H2009; first compound 0.006325 µM) was 0.364 and the relative viability (NCI-H2009; first compound 0.02 µM) was 0.368. For the same compound, the relative viability (NCI-H2009; first compound 0.06325 µM) was 0.187, the relative viability (NCI-H2009; first compound 0.2 µM) was 0.135 and the relative viability (LC-2-ad; first compound 0.002 µM) was 0.886. The relative viability (LC-2-ad; first compound 0.006325 µM) was 0.766, the relative viability (LC-2-ad; first compound 0.02 µM) was 0.754 and the relative viability (LC-2-ad; first compound 0.06325 µM) was 0.778. It also gave a relative viability (LC-2-ad; first compound 0.2 µM) of 0.786.
